Measurements as given in patent publication US20150224061A1, “NANOCONSTRUCTS WITH PHARMACOLOGICAL ACTIVITY” (UNIVERSITA' DEGLI STUDI DI MILANO - BICOCCA, priority 2012, published 2015).
Read-outs that look alike come from different tables or passages of the source. Where no end group is shown, it is not given here.

How the values were obtained:
NF-kB = test: TNFα production (ELISA) by LPS-stimulated DCs derived from bone marrow, marker of NF-kB pathway; type: cell-based, mouse; conditions: 2 h pretreatment, then LPS, 18 hours
Method: (§1) FIG. 2. Inhibition of the transduction of the NFAT signals by means of the MYTS-VIVIT nanoconstructs in DCs derived from bone marrow. The DCs were pre-treated, or not, with the indicated quantities of MYTS-VIVIT for two hours and then activated with LPS for 18 hours. The quantities of IL-2 and TNFα in the supernatant were measured using the ELISA method.
(§2) In order to assess whether nanoconstructs are able to inhibit the transduction signal pathway of NFAT, the following experiments were carried out in vitro. After exposure to LPS, the DCs derived from bone marrow were able to produce various inflammatory cytokines, including IL-2 and TNFα. IL-2 was strictly NFAT-dependent, whereas the production of TNFα was NF-kB-dependent and NFAT-independent. IL-2 and TNFα are therefore valid markers respectively of the activation pathway of NFAT and NF-kB. After two hours of pretreatment with the nanoconstructs obtained as described in example 1, the DCs derived from bone marrow were stimulated with LPS and the quantity of released cytokines was measured using the ELISA method 18 hours later.
(§3) DCs produce IL-2 in an NFAT-dependent manner if stimulated with LPS. To assess the efficacy of the VIVIT peptide, DCs derived from bone marrow were transduced with a sequence coding the VIVIT peptide fused with the GFP protein through use of a retroviral vector.

[1] = system: transduction signal pathway of NFAT; test: GFP+ Ly6G+ spleen neutrophils in IL-2/GFP mutant mice after LPS; type: in vivo, mouse; conditions: i.v. two hours before LPS injection
Method: FIG. 3. The NFAT pathway is active in the neutrophils. Mice genetically modified by IL-2/GFP were treated, or not, with MYTS-VIVIT and were then injected intravenously two hours after with LPS. The bars represent the percentage of GFP+Ly6G^+ spleen neutrophils […] after the treatment with LPS. In this mouse model, GFP was inserted in the second exon of IL-2 and therefore has the same regulation of IL-2.
Mutant mice (obtained from laboratories of Ronald H. Schwartz, NIH Bethesda) were used for this experiment. In this mouse model, the GFP protein was inserted into the second exon of the gene IL-2, and therefore had the same regulation of IL-2. As mentioned before, IL-2 is a marker of NFAT activation. If the mice genetically modified with regard to IL-2/GFP are treated with LPS, a significant percentage of GFP+ neutrophils (Ly6G+ cells) can be measured in the spleen two hours after treatment. To verify whether the nanoconstructs of the present invention are able to inhibit the signal pathway of NFAT in vivo, mutant mice were injected endovenously with the nanoconstructs as prepared in example 1 two hours before the injection of LPS.

[2] = system: NFAT-dependent edema induced by LPS; test: LPS-induced paw edema model; type: in vivo, mouse; conditions: subcutaneous pretreatment 2 hours prior to LPS in the paw
Method: FIG. 4. Inhibition of the NFAT pathway in the formation of edema of the paw in response to LPS. The animals were pretreated, or not, with the nanoconstructs (MYTS-VIVIT) or FK-506 (approximately 2 h) and were then treated locally with LPS.
To assess whether the nanoparticles of the present invention are able to inhibit in vivo the formation of LPS-induced edema, the mice were pretreated, or not, with the nanoconstructs of example 1 or FK506 as control sub-cutaneously for 2 hours prior to the injection of LPS in the paw.

[3] = system: transduction signal pathway of NFAT; test: IL-2 production (ELISA) by LPS-stimulated DCs derived from bone marrow, marker of NFAT pathway; type: cell-based, mouse; conditions: 18 hours; for inhibition of NFAT activity (IL-2 release, ELISA): peptide 25 uM pretreatment, LPS 100 ng/ml
Method: as §1, §2, §3
Since DCs are phagocyte cells, we firstly used the non-modified peptide, assuming that this could reach the cell cytosol once entered into the endosomal compartment. We then carried out co-cultures of DCs with the VIVIT peptide, and the inhibition of NFAT was analyzed by measuring the production of IL-2 following stimulation with LPS. […] A modified VIVIT peptide was then assessed, to which a […] 11-arginine tail had been attached. It has, in fact, been described in the literature that this modification can allow entry into the cells.

[4] = system: skin transplant rejection; test: Skin transplant rejection model (male skin into female mice); type: in vivo, mouse
Method: FIG. 6. Inhibition of skin transplant rejection. Male skin was grafted in female mice. The mice were then injected endovenously, or not, with the nanoconstructs (MYTS-VIVIT or MYTS-VEET) on days −1, 0, +1, +3, +6, +9, +12, and +15. In addition, the mice were then left without treatment for a further 20 days. The boxes M in M represent the untreated controls and show the skin transplant from male mouse to male mouse. […] The boxes M in F represent the skin transplant from male mouse to female mouse without treatment with the nanoconstructs. The scar of the rejection is clearly visible on day 30. The rejection can also be seen in boxes M in F (male into female) treated with the control MYTS-VEET nanoconstructs. Vice versa, in the boxes representing the transplant from male to female with MYTS-VIVIT treatment (M in F+MYTS-VIVIT), the acceptance of the graft is clearly visible. The bar chart beneath represents a quantification of the results of the experiment. To summarize, the transplant was accepted in 80% of cases treated with the MYTS-VIVIT nanoconstructs, whereas it was rejected in 100% of untreated cases and in 80% of cases treated with the control MYTS-VEET nanoconstruct.
To verify whether the nanoconstructs of the present invention are able to inhibit transplant rejection, a skin transplant model was used. […]

inflammatory arthritis = test: Arthritis induced by anti-collagen antibodies/LPS; type: in vivo, C57BL6 mice; conditions: treated on days −1, 0, +1, +3, +6, +9, +12
Method: FIG. 5. Inhibition of the development of arthritis. FIG. 5A: the mice were treated endovenously, or were not treated, at −1, 0, +1, +3, +6, +9, and +12 days with the nanoconstructs (MYTS-VIVIT) or with nanoconjugates MYTS-VEET (a peptide similar to VIVIT in which the sequence has been modified, thus losing specificity for Cn). Day 0 represents the start of the procedure of inducing arthritis. The clinical points indicative of the severity of the arthritis were assessed on the days indicated. In FIG. 5B, photographs showing arthritis on the seventh day in a treated mouse and in an untreated mouse are shown.
Rheumatoid arthritis (AR) is a chronic, debilitating systemic autoimmune disease characterized by an immunological inflammatory reaction of the mesenchymal tissue and of the synovial fluid accompanied by polyarticular synovitis. Over time, it leads to the progressive destruction of the articular and periarticular structures. […] To verify whether the nanoconstructs of the present invention are able to inhibit the development of inflammatory arthritis, a model of arthritis induced by anti-collagen antibody of the IL/LPS type was used. In particular, six C57BL6 mice were treated on days −1, 0, +1, +3, +6, +9, +12 with the nanoconstructs of example 1.

calcineurin (Cn) = conditions: cited from earlier work
NFAT = conditions: cited from earlier work
[5] = system: NF-kB transcription factor; conditions: cited from earlier work
neurons = conditions: i.v., 1 hour, magnet applied to the skull
Method: Then, a staining of the neurons was carried out with the fluorescent probe NeuroTrace (which stains the substance Nissi, which is abundant in neuronal cells and is formed from ribosomal RNA associated with the endoplasmic reticulum).

MYTS-VIVIT (H-CGGGKMAGPVIVITGPHEE-OH; not fully specified; printed as NH2—CGGGKMAGPVIVITGPHEE-COOH)
TNFα released (ELISA) (NF-kB): not the production of TNFα
percentage of GFP+ Ly6G+ spleen neutrophils [1]: strong impact on the ability of the neutrophils to produce GFP
formation of LPS-induced paw edema [2]: significantly inhibited
IL-2 released (ELISA) ([3]; 2 h pretreatment, then LPS): completely block IL-2
skin transplants accepted ([4]; i.v. treatment from day −1, after four weeks / day 30): 80%
skin transplants accepted ([4]; i.v. treatment from day −1, after four weeks / day 30, listed as nanoconstructs bearing the VIVIT peptide): 90%
development of arthritis (clinical points) (inflammatory arthritis): inhibit the development of arthritis very effectively

NH2—CGGGKMAGPVIVITGPHEE-COOH (H-CGGGKMAGPVIVITGPHEE-OH; listed as Homo sapiens)
inhibition of NFAT activity (IL-2 release, ELISA) [3]: unable to penetrate into the cytosol of the DCs and to block the activity of NFATs
inhibition of NFAT activity (IL-2 release, ELISA) ([3]; listed as free, non-modified VIVIT peptide): did not make it possible to interfere with the activity of NFAT

Val-Ile-Val-Ile-Thr [VIVIT]
affinity for Cn (calcineurin (Cn)): increased affinity for Cn
inhibition of NFAT (gene reporter) (NFAT): effectively inhibits NFAT and its activity
inhibition of NF-kB (gene reporter) [5]: not the activity of the NF-kB transcription factor

enfuvirtide
accumulation of AF660-labeled drug in neurons (confocal microscopy) (neurons; listed as free enfuvirtide): only in the case of the drug conjugated to the MYTS nanoparticles
accumulation of AF660-labeled drug in neurons (confocal microscopy) (neurons; listed as labeled drug not conjugated to the nanoparticles): traces of fluorescence cannot be seen

peptide with an 11-arginine tail: peptide with sequence SEQ ID NO:1 conjugated with an 11-arginine tail (CGGGKMAGPVIVITGPHEE; also: 11-arginine tail conjugated, end not given here; listed as Homo sapiens)
inhibition of NFAT activity (IL-2 release, ELISA) [3]: unable to penetrate into the cytosol of the DCs and to block the activity of NFATs
inhibition of NFAT activity (IL-2 release, ELISA) ([3]; listed as modified VIVIT peptide): not possible to observe any inhibition of the NFAT pathway
